Test results as given in PMC5411959, “Potential Antiosteoporotic Natural Product Lead Compounds That Inhibit 17β-Hydroxysteroid Dehydrogenase Type 2” (Journal of Natural Products, 2017).
Several values for one entry are separate records, joined by “and”; a condition that tells them apart may be missing. Equal entries are not always repeated. Where two headings read alike, the source gives them in different places. Values belong to the compound of their own block, whether it stands above or below them.

Legend:
[1] = tested on: 17β-HSD2; design: method as in PMID 18533708; conditions: cited from earlier work; for classification (17β-HSD2 inhibition): flavonoid SAR model, Table 4; for IC50: read-out: inhibition of 17β-HSD2: IC50 (μM); for IC50 / activity: mean ± SD; for activity: 40 μM, read-out: inhibition of 17β-HSD2: % residual activity at 40 μM
[2] = biological target: T1, human 17β-HSD2 (Homo sapiens, UniProt P37059); assay: 17β-HSD2 activity assay using lysates of HEK-293 cells expressing the recombinant human enzyme; format: biochemical; conditions: for remaining activity at 20 µM: read-out: 17β-HSD2 remaining activity at 20 μM (% of control); for 17β-HSD2 inhibition (in words): tested at 20 μM; for IC50: HEK-293 lysates, 200 nM estradiol, 500 μM NAD+, 10 min 37 °C;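 as to all read-outs here: conversion of tritium-labelled estradiol (200 nM, with 500 µM NAD+, 10 min) quantified after TLC separation by scintillation counting, at least three independent measurements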
T1 construct: expressed in transfected cells; host or cells: HEK-293 (ATCC), used as cell lysate
T1 sequence (P37059 1-387): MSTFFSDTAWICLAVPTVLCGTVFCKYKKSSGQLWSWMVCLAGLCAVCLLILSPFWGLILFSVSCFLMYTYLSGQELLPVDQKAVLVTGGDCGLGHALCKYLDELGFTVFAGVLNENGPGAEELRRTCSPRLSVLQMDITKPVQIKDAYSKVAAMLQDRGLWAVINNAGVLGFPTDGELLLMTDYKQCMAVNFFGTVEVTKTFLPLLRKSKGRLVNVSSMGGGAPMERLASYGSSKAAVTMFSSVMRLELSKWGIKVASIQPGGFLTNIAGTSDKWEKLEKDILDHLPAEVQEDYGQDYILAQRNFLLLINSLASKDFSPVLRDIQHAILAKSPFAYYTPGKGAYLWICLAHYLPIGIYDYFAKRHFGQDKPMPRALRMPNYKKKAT

[3] = biological target: T2, human 17β-HSD1 (Homo sapiens, UniProt P14061); assay: 17β-HSD1 activity assay using lysates of HEK-293 cells expressing the recombinant human enzyme; format: biochemical; conditions: for 17β-HSD1 inhibition (in words; n.i. = no inhibition): screened at 20 μM; for IC50: HEK-293 lysates, 200 nM estrone, 500 μM NADPH
T2 construct: expressed in transfected cells; host or cells: HEK-293 (ATCC), used as cell lysate
T2 sequence (P14061 1-328): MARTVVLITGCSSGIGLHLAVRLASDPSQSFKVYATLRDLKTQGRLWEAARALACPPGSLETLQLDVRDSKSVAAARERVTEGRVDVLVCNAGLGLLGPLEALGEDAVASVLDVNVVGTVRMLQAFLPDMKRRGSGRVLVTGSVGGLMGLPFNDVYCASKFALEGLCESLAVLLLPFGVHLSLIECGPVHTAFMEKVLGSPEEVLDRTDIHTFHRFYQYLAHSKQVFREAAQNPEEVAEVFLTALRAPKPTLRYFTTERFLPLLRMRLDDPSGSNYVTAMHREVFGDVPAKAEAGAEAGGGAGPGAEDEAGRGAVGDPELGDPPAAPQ

[4] = 20 μM compound, % of vehicle control

Compound: COc1ccc(-c2coc3cc(O)cc(O)c3c2=O)cc1 [compound 33, biochanin A]
classification (17β-HSD2 inhibition) [1]: active^24 | IC50 [1]: 9.9 ± 1.87 µM

Compound: O=C1CC(c2ccc(O)cc2)Oc2ccccc21 (stereo not drawn) [compound 21, 4´-hydroxyflavanone]
activity [1]: 63.6 ± 3.5% | classification (17β-HSD2 inhibition) [1]: inactive^24

17β-HSD2 remaining activity at 20 μM (% of control) [2, 4]: 85 ± 11%
Compound: pestalactam A [S13]

remaining activity at 20 µM [2, 4]: 97 ± 10%
Compound: O=C(/C=C/c1ccc(O)c(O)c1)O[C@@H]1C[C@](O)(C(=O)O)C[C@@H](O)[C@H]1O [S8, chlorogenic acid]

Compound: O=c1c(-c2ccc(O)cc2)coc2cc(O)cc(O)c12 [compound 32, genistein]
classification (17β-HSD2 inhibition) [1]: active^24

remaining activity at 20 µM [2, 4]: 58 ± 13%
Compound: O=C(O)/C=C/c1ccc(O)c(O)c1 [S9, caffeic acid]

remaining activity at 20 µM [2, 4]: 110 ± 10% | 17β-HSD2 inhibition (in words) [2]: did not inhibit
Compound: NC(=O)Cc1ccc(O)cc1 [S16, 2-(4-hydroxyphenyl)acetamide]

Compound: O=C1CC(c2ccccc2O)Oc2ccccc21 (stereo not drawn) [compound 20, 2´-hydroxyflavanone]
activity [1]: 50.7 ± 0.5% | classification (17β-HSD2 inhibition) [1]: inactive^24

remaining activity at 20 µM [2, 4]: 56 ± 5%
Compound: CCCCOC(=O)c1cc(O)c(O)c(O)c1 [S3, butyl gallate]

Compound: CCN(CC)CCCC(C)Nc1ccnc2cc(Cl)ccc12 (racemic) [S17, (±)-chloroquine, reference compound]
17β-HSD2 remaining activity at 20 μM (% of control) [2, 4]: 111 ± 13%

Compound: O=c1cc(-c2ccccc2)oc2cc(O)ccc12 [compound 26, 7-hydroxyflavone]
activity [1]: 23.1 ± 1.1% | classification (17β-HSD2 inhibition) [1]: weak^24 | IC50 [1]: > 20 µM

IC50 [2]: 0.36 ± 0.08 µM
Compound: O=C(/C=C/c1ccc(O)cc1)c1ccc(O)cc1O [compound 6, isoliquiritigenin]

Compound: O=c1c(O)c(-c2ccc(O)cc2)oc2cc(O)cc(O)c12 [compound 30, kaempferol]
classification (17β-HSD2 inhibition) [1]: active^24 | IC50 [1]: 0.36 ± 0.04 µM

17β-HSD1 inhibition (in words; n.i. = no inhibition) [3]: n.i. | IC50 [2]: 3.42 ± 0.74 µM
Compound: O=C(Cc1ccc(O)c(Cl)c1)NCc1ccccc1 [compound 16, N-benzyl-2-(3-chloro-4-hydroxyphenyl)acetamide]

Compound: CC(Cc1ccc(O)c(O)c1)C(C)Cc1ccc(O)c(O)c1 (stereo not drawn) [compound 1, nordihydroguaiaretic acid]
times more active toward 17β-HSD2 than 17β-HSD1 [3]: 15 times | selectivity factor ([3]; 17β-HSD1 versus 17β-HSD2): 15 | selectivity over 17β-HSD1 ([3]; 17β-HSD2 over 17β-HSD1): ≥ 8 fold | IC50 [3]: 5.5 ± 1.3 µM | IC50 [2]: 0.38 ± 0.04 µM

remaining activity at 20 µM [2, 4]: 80 ± 10% | 17β-HSD2 inhibition (in words) [2]: did not inhibit
Compound: NC(=O)Cc1ccc(O)c(Cl)c1 [S11, 2-(3-chloro-4-hydroxyphenyl)acetamide]

IC50 [2]: 9.3 µM and 9.27 µM | classification (17β-HSD2 inhibition) ([2]; flavonoid SAR model, Table 4): active
Compound: COc1cc(-c2cc(=O)c3c(O)c(OC)c(O)cc3o2)ccc1O [compound 5, jaceosidin]

remaining activity at 20 µM [2, 4]: 60 ± 6%
Compound: CCOC(=O)c1cc(O)c(O)c(O)c1 [S1, ethyl gallate]

Compound: COc1cc(CCC(C)=O)ccc1O [S2, vanillyl acetone]
17β-HSD2 remaining activity at 20 μM (% of control) [2, 4]: 106 ± 9%

17β-HSD2 remaining activity at 20 μM (% of control) [2, 4]: 64 ± 5%
Compound: COc1cc(C)cc2oc3ccc(O)c(C(=O)O)c3c(=O)c12 [S10, 2-hydroxy-8-methoxy-6-methyl-9-oxo-9H-xanthene-1-carboxylic acid]

Compound: COc1cc([C@H]2OC[C@H]3[C@@H]2CO[C@@H]3c2ccc(O)c(OC)c2)ccc1O [compound 7, pinoresinol]
remaining activity at 20 µM [2]: 42 ± 5%

Compound: O=c1cc(-c2ccccc2)oc2cc(O)cc(O)c12 [compound 27, chrysin]
activity [1]: 32.8 ± 5.1% | classification (17β-HSD2 inhibition) [1]: inactive^24

17β-HSD1 inhibition (in words; n.i. = no inhibition) [3]: n.i. ^a | IC50 [2]: 3.72 ± 0.17 µM
Compound: O=C(/C=C/c1ccc(O)c(O)c1)O[C@H](Cc1ccc(O)c(O)c1)C(=O)O [compound 11, rosmarinic acid]

Compound: CCOC(=O)c1ccc(O)c(OC)c1 [compound 12, ethyl vanillate]
17β-HSD1 inhibition (in words; n.i. = no inhibition) [3]: n.i. | IC50 [2]: 1.28 ± 0.26 µM

remaining activity at 20 µM [2, 4]: 101 ± 7%
Compound: COc1cc(/C=C2\N=C(N)NC2=O)ccc1O [S14, polyandrocarpamine A]

remaining activity at 20 µM [2, 4]: 33 ± 6% | 17β-HSD2 inhibition (in words) [2]: moderately active
Compound: CCCCNC(=O)Cc1ccc(O)c(Cl)c1 [compound 15, N-butyl-2-(3-chloro-4-hydroxyphenyl)acetamide]

Compound: C=CCc1ccc(O)c(OC)c1 [S4, eugenol]
remaining activity at 20 µM [2]: 94 ± 11%

Compound: O=c1cc(-c2ccccc2)oc2ccccc12 [compound 25, flavone]
activity [1]: 63.9 ± 0.6% | classification (17β-HSD2 inhibition) [1]: inactive^24

17β-HSD2 remaining activity at 20 μM (% of control) [2, 4]: 59 ± 7%
Compound: COC(=O)c1cc2c(c(O)c1OC)[C@H](C)C[C@@H](O)[C@H]2[C@@H](C)CCC=C(C)C [S18, methyl (5R,7R,8S)-4,7-dihydroxy-3-methoxy-5-methyl-8-((S)-6-methylhept-5-en-2-yl)-5,6,7,8-tetrahydronaphthalene-2-carboxylate]

Compound: O=C1C[C@@H](c2ccc(O)cc2)Oc2cc(O)cc(O)c21 [compound 23, naringenin]
classification (17β-HSD2 inhibition) [1]: active^24 | IC50 [1]: 14.4 ± 4.5 µM

Compound: O=c1c(O)c(-c2ccc(O)c(O)c2)oc2cc(O)cc(O)c12 [compound 31, quercetin]
classification (17β-HSD2 inhibition) [1]: active^24 | IC50 [1]: 1.54 ± 0.22 µM

IC50 [3]: 0.049 ± 0.019 µM
Compound: O=c1c2c(O)cc(O)cc2oc2oc3cc(O)ccc3c12 [compound 8, lupinalbin A]

Compound: O=C(O)Cc1ccc(O)c(Cl)c1 [S12, 2-(3-chloro-4-hydroxyphenyl)acetic acid]
remaining activity at 20 µM [2]: 88 ± 7%

17β-HSD2 remaining activity at 20 μM (% of control) [2, 4]: 79 ± 10%
Compound: COc1cc(/C=C/C(=O)O)ccc1O [S5, ferulic acid]

Compound: COc1cc(CNC(=O)CCCC/C=C/C(C)C)ccc1O [S6, capsaicin]
remaining activity at 20 µM [2]: 53 ± 6%

Compound: COc1ccc([C@@H]2CC(=O)c3c(O)cc(O)cc3O2)cc1O [compound 24, hesperetin]
activity [1]: 36.4 ± 1.7% | classification (17β-HSD2 inhibition) [1]: inactive^24

remaining activity at 20 µM [2, 4]: 106 ± 12%
Compound: NC(=O)c1cccnc1 [S7, nicotinamide]

Compound: CC1(C)CC[C@]2(C(=O)O)CC[C@]3(C)C(=CC[C@@H]4[C@@]5(C)CC[C@H](O)C(C)(C)[C@@H]5CC[C@]43C)[C@@H]2C1 [compound 2, oleanolic acid]
remaining activity at 20 µM [2]: 49 ± 6%

Compound: O=C1CC(c2ccccc2)Oc2ccc(O)cc21 (stereo not drawn) [compound 22, 6-hydroxyflavanone]
activity [1]: 42.5 ± 1.8% | classification (17β-HSD2 inhibition) [1]: inactive^24

remaining activity at 20 µM [2, 4]: 108 ± 5% | 17β-HSD2 inhibition (in words) [2]: did not inhibit
Compound: O=C(O)Cc1ccc(O)cc1 [S15, 2-(4-hydroxyphenyl)acetic acid]

Compound: O=c1cc(-c2ccc(O)cc2)oc2cc(O)cc(O)c12 [compound 29, apigenin]
activity [1]: 25.2 ± 0.9% | classification (17β-HSD2 inhibition) [1]: weak^24 | IC50 [1]: > 20 µM

IC50 [2]: 7.3 ± 2.7 µM | fold less active than 6 (17β-HSD2 IC50) ([2]; compared with compound 6): 20 fold
Compound: O=C(/C=C/c1ccc(O)c(O)c1)c1ccc(O)cc1O [compound 10, butein]

Compound: O=c1c(-c2ccc(O)cc2)coc2cc(O)ccc12 [compound 28, daidzein]
activity [1]: 58.3 ± 6.1% | classification (17β-HSD2 inhibition) [1]: inactive^24

Compound: O=C1CC(c2ccccc2)Oc2ccccc21 (stereo not drawn) [compound 19, flavanone]
activity [1]: 70.7 ± 2.6% | classification (17β-HSD2 inhibition) [1]: inactive^24

remaining activity at 20 µM [2, 4]: 37 ± 3% | 17β-HSD2 inhibition (in words) [2]: moderately active
Compound: COCCNC(=O)Cc1ccc(O)c(Cl)c1 [compound 14, 2-(3-chloro-4-hydroxyphenyl)-N-(2-methoxyethyl)acetamide]
